Measurements taken from US10765754B2, “Compositions and methods related to inhibition of respiratory syncytial virus entry” (priority 2015, dated 2020).
Starred links: 1 amine or outer side, 2 acyl side, 3 side chain; linkers in the order of their positions; H or OH if unused. Positions of bridges follow the written chain, without caps; N, C: chain ends. Non-standard residues stand in square brackets, D forms with d. Residues, ends and D or L forms follow the SMILES beside them. Chains are numbered I, II in the order given. X1 = NCCOCCOCCOCCOCCOCCOCCOCCOCCOCCOCCOCCOCCOCCOCCOCCOCCOCCOCCOCCOCCOCCOCCOCCOCCOCCOCCOCCOCCC(=O)NC(CCC(=O)[*:1])(CCC(=O)[*:2])CCC(=O)[*:3]; PEG6 = NCCOCCOCCOCCOCCOCCOCCC(=O)O

Legend:
[1] = tested on: RSVA-IZN45 (SEQ ID NO: 34); conditions: Table 8 Result column
Description: AC-K-(PEG4)DDG-RSVP32 (SEQ ID NO:142) is an affinity matured RSV N-trimer binder identified from phage display and represents an optimized binding solution from a disulfide constrained CX10C (disulfide constrained 10-mer) library based on the 20 natural amino acids. […] Using the co-crystal structure of RSVP32 (SEQ ID NO:31) and RSVA-IZN21 (SEQ ID NO:34), a molecular-modeling suite (ICM-Pro, MolSoft LLC) was used to model various natural and non-natural amino acid substitutions and calculate binding energies. The following parameters were used to calculate binding energy: electrostatic boundary element energy, H-bonds, solvation energy estimated as surface tension, and side-chain entropy.

RSV-B/IZN45 = target: T1, RSV-B/IZN45 (Human respiratory syncytial virus B, UniProt O36634); test: biochemical; assay type: binding; conditions: RSV-B/IZN45
T1 construct: N-trimer Mimics Synthesized; made in house; host or cells: chemical peptide synthesis
Description: (§1) IZN45 N-trimer mimic comprises the IZ domain, a highly soluble, designed coiled-coil that helps solubilize the N-trimer, along with the C-terminal (bottom) 45 residues of the RSV N-trimer. IZN45 encompasses the full ordered portion of the N-trimer except for three N-terminal residues (removed to maintain a continuous heptad repeat with the IZ domain). The interactions between 35-residue RSV C-peptides, T108 and T118 (Lambert et al., 1996, Proc. Natl. Acad. Sci. USA 93:2186-2191), and IZN45 was examined by surface plasmon resonance (SPR). SPR is a gold standard assay to measure the kinetics and affinity of biological interactions. […] The Biotinylated L-form of RSV target IZN45 was captured onto one lane of a NeutrAvidin coated SPR chip. A mutant version of IZN45 containing four mutated residues along the N-trimer groove designed to disrupt binding (IZN45 Full Mut, negative control) was captured onto a separate lane of the NeutrAvidin chip. T118, corresponding to the C-terminal portion of the RSV F ectodomain, which is known to interact with the RSV N-trimer groove, was flowed over the various surfaces. […] The surfaces were regenerated with a detergent (0.1% SDS) after each injection of analyte. Various concentrations of T118 were measured in duplicate or triplicate injections. D-peptide interactions with IZN45 and IZN45-Full Mut surfaces were also measured using this method.
(§2) Peptides from the ‘winning’ phage clones from each library were synthesized as D-peptides. If solubility of the peptides was limited, N- or C-terminal charged residue(s) (e.g., lysine) were attached as necessary as previously described for HIV peptides in Eckert et al., 1999, Cell 99:103-15, incorporated by reference in its entirety. Binding affinity and kinetics of the D-peptide inhibitors to the IZN45 and IZN45 mutants was characterized by SPR (Biacore 3000), using methods as described in Welch et al., 2007, Proc. Natl. Acad. Sci. USA 104:16828-33, incorporated by reference in its entirety.

RSV-A/IZN45 = target: T2, RSV-A/IZN45 (Human respiratory syncytial virus A, UniProt P03420); test: SPR binding to RSV-A IZN45 N-trimer mimic; conditions: Kd, RSV-A/IZN45
T2 construct: N-trimer Mimics Synthesized; made in house; host or cells: chemical peptide synthesis
Description: as §1, §2

IZN45 = test: SPR binding to IZN45 N-trimer mimic, subtype not stated; design: species or system RSV
Description: as §1, §2

IZN45 Full Mut = IZN45 Full Mut (Human respiratory syncytial virus B, UniProt O36634, A170W/A177W/D194W/G184W/N197K); conditions: IZN45 Full Mut / IZN45_Mut, SPR
Description: as §1, with “method. […]” for “method.”

RSV = conditions: high-risk infants; cited from earlier work
HIV = conditions: standard viral passaging, escalating inhibitor; cited from earlier work
RSV-A F protein = target: T3, RSV-A F protein (Human respiratory syncytial virus A, UniProt P03420); test: cell-based
T3 construct: expressed in transfected cells; host or cells: 293 T cells
Description: The RSV Syncytia reduction assay was used to evaluate D-peptide inhibitors of RSV entry (IC50). In brief, 293 T cell were plated in a 96-well plate and a 6-well plate. The cells in the 96-well plate were co-transfected with DNA encoding the RSV F protein (or RSV G protein as a negative control) and DNA encoding firefly luciferase downstream of multiple GAL4 binding sites (CheckMate Mammalian Two-Hybrid system, Promega). These cells were designated the effector cells. The cells in the 6-well plate were transfected with GAL4:Id and VP16:MyoD fusion constructs, which interact and drive gene expression in the presence of GAL4 binding sites. These cells were the target cells. At 24 hours post-transfection, the media is removed from the effector cells and D-peptide inhibitors at 2× concentration (diluted in fresh media) were added. Also at 24 hours post-transfection, the target cells are washed with PBS, gently dissociated from the 6-well plate using Versene (0.48 mM EDTA in PBS), and overlaid (at equal volume) onto the effector cells containing 2× inhibitor. At 48 h post-transfection, the cells are lysed using Glo Lysis Buffer (Promega). Bright Glo luciferase assay substrate is added and luminescent signal from expressed luciferase is measured. Luciferase is only expressed in effector cells that fuse (form syncytia) with target cells.

[2] = subsequent trimer/compound made from peptide, SPR
[3] = running text/figure legend, IZN45 subtype not stated
[4] = IC50, subsequent trimer/compound made from peptide, syncytia reduction assay using RSV-A F protein
[5] = IC50, (L) inhibitors of RSV, controls for D-peptide studies, assay not stated in Table 6
[6] = synthesized peptide, KD determined by SPR

Which “Decreased potency compared to RSVP32” value [1] does the source give for “Ac-GECVN(HRG)PEWLLDWCGT-NH2 [SEQ ID NO: 147]” here?
The value was 2.6-fold compared.

And the potency [1]?
Its potency is 0.065 µM.

For “I: Ac-[dK][PEG6]G[dA][dC][dR][dN][dE][dP][dH][dW][dL][dL][dD][dW][dC][dA][dA]-NH2 / II: Ac-[dK][PEG6]G[dA][dC][dR][dN][dE][dP][dH][dW][dL][dL][dD][dW][dC][dA][dA]-NH2 / III: Ac-[dK][PEG6]G[dA][dC][dR][dN][dE][dP][dH][dW][dL][dL][dD][dW][dC][dA][dA]-NH2 (linker I:1-II:1-III:1 via X1; disulfide I:5-I:16, II:5-II:16, III:5-III:16; C-terminus assumed) [Ac-K(PEG6)-RSVP20-trimer]”, which Kd (RSV-B/IZN45; [2]) is on record?
The Kd was 0.0017 µM.

What about the Kd (RSV-A/IZN45; [2]) of the same molecule?
The Kd was 0.0003 µM.

And the Kd (IZN45; [3])?
Its Kd is 0.0003 µM.

And the “improvement in binding affinity of trimer over the corresponding monomer” value (IZN45; trimerization)?
The value was 10,000 fold.

For “T118: 35-residue RSV C-peptide corresponding to the C-terminal portion of the RSV F ectodomain (FDASISQVNEKINQSLAFIRKSDELLHNVNAGKST)”, which “binding to mutant control target” value (IZN45 Full Mut) is on record?
Its value is “did not bind”.

With Ac-GEVCRPEWLLDWCGT-NH2 [SEQ ID NO: 159] as the molecule, how does the “Decreased potency compared to RSVP32” value [1] read?
The value was 14.4-fold.

And the potency [1]?
The potency was 0.36 µM.

Which reduction of hospitalizations (RSV) does the source give for “Synagis: monoclonal antibody (mAb) given prophylactically throughout RSV season” here?
Its reduction of hospitalizations is 55%.

For enfuvirtide, which “time in which resistance develops” value (HIV) is on record?
Its value is 2-3 weeks.

With `CC(=O)N[C@H](CCCCN)C(=O)NCC(=O)NCC(=O)N[C@H](C)C(=O)N[C@@H]1CSSC[C@H](C(=O)N[C@H](C)C(=O)N[C@H](C)C(N)=O)NC(=O)[C@@H](Cc2c[nH]c3ccccc23)NC(=O)[C@@H](CC(=O)O)NC(=O)[C@@H](CC(C)C)NC(=O)[C@@H](CC(C)C)NC(=O)[C@@H](Cc2c[nH]c3ccccc23)NC(=O)[C@@H](Cc2c[nH]cn2)NC(=O)[C@H]2CCCN2C(=O)[C@@H](CCC(=O)O)NC(=O)[C@@H](CC(N)=O)NC(=O)[C@@H](CCCNC(=N)N)NC1=O` [Ac-KG-RSVP20] (Ac-[dK]GG[dA][dC][dR][dN][dE][dP][dH][dW][dL][dL][dD][dW][dC][dA][dA]-NH2; disulfide 5-16) as the molecule, how does the IC50 (RSV-A F protein; IC50, synthesized peptide, syncytia reduction assay using RSV-A F protein) read?
Its IC50 is 673 µM.

For “I: Ac-[dS][dM][dC][dV][dN][dR][dP][dE][dW][dL][dL][dD][dW][dC]G[dT]G[dD][dD][PEG6][dK]-NH2 / II: Ac-[dS][dM][dC][dV][dN][dR][dP][dE][dW][dL][dL][dD][dW][dC]G[dT]G[dD][dD][PEG6][dK]-NH2 / III: Ac-[dS][dM][dC][dV][dN][dR][dP][dE][dW][dL][dL][dD][dW][dC]G[dT]G[dD][dD][PEG6][dK]-NH2 (disulfide I:3-I:14, II:3-II:14, III:3-III:14; linker I:21-II:21-III:21 via X1; C-terminus assumed) [Ac-RSVP24-GDD(PEG6)K-trimer]”, which IC50 (RSV-A F protein; [4]) is on record?
Its IC50 is 4.6 µM.

Which IC50 (RSV-A F protein; [5]) does the source give for “H-YGFDASISQVNEKINQSLAFIRKSDELLHNVNAGKST-NH2 [YG-T118]” here?
The IC50 was 8 µM.

Which “Decreased potency compared to RSVP32” value [1] does the source give for “Ac-GECVNQPEWLLDWCGT-NH2 [SEQ ID NO: 151]” here?
The value was ~2-fold compared.

And the potency [1]?
Its potency is 0.053 µM.

With “Ac-IKKEIEAIKKEQEAIKKKIEAIEKEVNKIKSALLSTNKAVVSLSNGVSVLTSKVLDLKNYIDKQLLPIV-NH2 [Ac-RSV-A IZN45]” as the molecule, how does the IC50 (RSV-A F protein; [5]) read?
The IC50 was 0.006 µM.

For `CC(=O)N[C@H](CCCCN)C(=O)NCCOCCOCCOCCOCCOCCOCCC(=O)NCC(=O)N[C@H](C)C(=O)N[C@@H]1CSSC[C@H](C(=O)N[C@H](C)C(=O)N[C@H](C)C(N)=O)NC(=O)[C@@H](Cc2c[nH]c3ccccc23)NC(=O)[C@@H](CC(=O)O)NC(=O)[C@@H](CC(C)C)NC(=O)[C@@H](CC(C)C)NC(=O)[C@@H](Cc2c[nH]c3ccccc23)NC(=O)[C@@H](Cc2c[nH]cn2)NC(=O)[C@H]2CCCN2C(=O)[C@@H](CCC(=O)O)NC(=O)[C@@H](CC(N)=O)NC(=O)[C@@H](CCCNC(=N)N)NC1=O` [Ac-K(PEG6)-RSVP20] (Ac-[dK][PEG6]G[dA][dC][dR][dN][dE][dP][dH][dW][dL][dL][dD][dW][dC][dA][dA]-NH2; disulfide 5-16), which Kd (RSV-B/IZN45; [6]) is on record?
Its Kd is 4.1 µM.

What about the Kd (RSV-A/IZN45; [6]) of the same molecule?
Its Kd is 3.7 µM.

And the Kd (IZN45; b401, printed without unit)?
Its Kd is 3.7 µM.

And the Kd (IZN45; [3])?
The Kd was 3.7 µM.

Which IC50 (RSV-A F protein; [4]) does the source give for “I: Ac-[dK][PEG6]G[dH][dA][dC][dV][dN][dR][dP][dE][dW][dL][dL][dD][dW][dC]G[dR]G[dR][dR]-NH2 / II: Ac-[dK][PEG6]G[dH][dA][dC][dV][dN][dR][dP][dE][dW][dL][dL][dD][dW][dC]G[dR]G[dR][dR]-NH2 / III: Ac-[dK][PEG6]G[dH][dA][dC][dV][dN][dR][dP][dE][dW][dL][dL][dD][dW][dC]G[dR]G[dR][dR]-NH2 (linker I:1-II:1-III:1 via X1; disulfide I:6-I:17, II:6-II:17, III:6-III:17) [Ac-K(PEG6)G-RSVP26-GRR-trimer]” here?
The IC50 was 5.5 µM.

With GECVNRPEWLLDWCGT [RSVP32] as the molecule, how does the potency [1] read?
The potency was 0.025 µM.
